The results in this text go back to patent US20180305408A1, “COMPOUNDS FOR INDUCING TISSUE FORMATION AND USES THEREOF” (HISTIDE AG, priority 2015, published 2018).

No end group written: not given here.

Holding throughout (assay type): cell-based
The test system of test [1] is Human umbilical-vein endothelial cells. In words: Endothelialization: area of adherent junctions (CD31) in HUVECs. Particulars: after 36 hours of culture. On the procedure: Human umbilical-vein endothelial cells were cultured with and without endothelialization GFR-binding compounds as defined herein (SEQ ID NO: 26). An increase in the area of the adherent junctions (CD31) was observed after 36 hours of culture with GFR-binding compounds as defined herein (FIG. 10).

Test [2] shares this test system. In words: Angiogenesis: tube-like structure formation by HUVECs. To be noted: after 18 hours of culture. The method, then:
Human umbilical-vein endothelial cells were cultured with and without vascular peptides (SEQ ID NO: 27).

Test [3] concerns Human epithelial cells. In words: Wound healing scratch test, collective cell migration. Particulars: after 18 hours of culture. On the procedure:
Human epithelial cells were cultured with or without GFR-binding compounds as defined herein (SEQ ID NO: 28). A usual scratch test was applied (Nat Protoc 2: 329-333) on a monolayer of these epithelial cells in culture (FIG. 12a). An increase in the cell migration velocity for cells cultured with peptides was observed after 18 hours of culture. The cells migrated collectively and the communication between cells was maintained (FIG. 12b). In fact, the injury has been closed rapidly for the cells cultured with GFR-binding compounds as defined herein.

On to “SEQ ID NO: 26: endothelialization GFR-binding compound; sequence not in this part (RSVKVAKVRIKPHQGQHKEVQVGG; also: cyclic, ring type not given here)”, for which the “area of the adherent junctions (CD31)” value in test [1] is reported as “increase”.

For “SEQ ID NO: 27: vascular peptide; sequence not in this part (SNITMQIMRIKPHQGQHIGEMSGG; also: cyclic, ring type not given here)”, the “formation of tube-like structures” value in test [2] is given as “formation of tube-like structures was observed”.

On to “SEQ ID NO: 28: GFR-binding compound tested for wound healing; sequence not in this part (RPTQVQLRPVQVRKIEYVRKKPKLKKATV; also: cyclic, ring type not given here)”, for which the cell migration velocity entry in test [3] was “increase”.
